ChEMBL document CHEMBL4257485, “The critical role of novel benzophenone analogs on tumor growth inhibition targeting angiogenesis and apoptosis” (Medchemcomm, 2018)

Legend:
[1] = tested on: MCF7; assay: Cytotoxicity against human MCF7 cells after 48 hrs by MTT assay; format: functional, cell-based; settings: MCF7, 48 h
[2] = tested on: A549; assay: Cytotoxicity against human A549 cells after 48 hrs by LDH release assay; format: functional, cell-based; settings: A549, 48 h
[3] = tested on: NIH3T3; assay: Cytotoxicity against mouse NIH/3T3 cells after 48 hrs by trypan blue exclusion assay; format: cell-based; settings: NIH3T3, 48 h
[4] = tested on: MCF7; assay: Cytotoxicity against human MCF7 cells after 48 hrs by trypan blue exclusion assay; format: functional, cell-based; settings: MCF7, 48 h
[5] = tested on: MCF7; assay: Cytotoxicity against human MCF7 cells after 48 hrs by LDH release assay; format: functional, cell-based; settings: MCF7, 48 h
[6] = tested on: NIH3T3; assay: Cytotoxicity against mouse NIH/3T3 cells after 48 hrs by LDH release assay; format: cell-based; settings: NIH3T3, 48 h
[7] = tested on: A549; assay: Cytotoxicity against human A549 cells after 48 hrs by MTT assay; format: functional, cell-based; settings: A549, 48 h
[8] = tested on: HeLa; assay: Cytotoxicity against human HeLa cells after 48 hrs by trypan blue exclusion assay; format: functional, cell-based
[9] = tested on: HeLa; assay: Cytotoxicity against human HeLa cells after 48 hrs by LDH release assay; format: functional, cell-based
[10] = tested on: NIH3T3; assay: Cytotoxicity against mouse NIH/3T3 cells after 48 hrs by MTT assay; format: cell-based; settings: NIH3T3, 48 h
[11] = tested on: A549; assay: Cytotoxicity against human A549 cells after 48 hrs by trypan blue exclusion assay; format: functional, cell-based; settings: A549, 48 h
[12] = tested on: HeLa; assay: Cytotoxicity against human HeLa cells after 48 hrs by MTT assay; format: functional, cell-based

Structure (SMILES)	IC50 [1]	IC50 [2]	IC50 [3]	IC50 [4]	IC50 [5]	IC50 [6]	IC50 [7]	IC50 [8]	IC50 [9]	IC50 [10]	IC50 [11]	IC50 [12]
Cn1cnc(C(=O)NNC(=O)COc2c(F)cc(C(=O)c3ccc(Cl)cc3)cc2Cl)c1	43.1 µM	45.8 µM	90.9 µM	47.3 µM	44.4 µM	89.3 µM	49.1 µM	51.6 µM	54.5 µM	87.8 µM	47.3 µM	
Cn1cnc(C(=O)NNC(=O)COc2c(F)cc(C(=O)c3ccc(F)cc3)cc2Cl)c1	45.1 µM	40.7 µM	94.2 µM	44.6 µM	44.6 µM	94.4 µM	40.1 µM	39.9 µM	40.9 µM	89.2 µM	39.6 µM	42.2 µM
Cc1ccc(C(=O)c2cc(F)c(OCC(=O)NNC(=O)c3ccc(=O)oc3)c(Cl)c2)cc1	23.6 µM	21.4 µM	30.8 µM	29.1 µM	24.2 µM	32.1 µM	22.6 µM	26.2 µM	26.9 µM	28.9 µM	19.6 µM	20.9 µM
O=C(COc1c(F)cc(C(=O)c2ccc(F)cc2)cc1Cl)NNC(=O)c1ccc(=O)oc1	63.2 µM	60.2 µM	85.4 µM	62.2 µM	61.1 µM	89.8 µM	58.8 µM	59.2 µM	60.1 µM	87.8 µM	56.7 µM	59.9 µM
